For 15 compounds, TGI and GI50 results are on record in PubChem BioAssay (NCI).

Holding throughout (assay): NCI anticancer screen, dose series, 48 h
Assay [1] relates to A498 renal.
Assay [2] concerns EKVX NSCLC.
For assay [3], the system named is HCT-116 colon.
In assay [4] the test system is OVCAR-3 ovarian.
Assay [5] deals with OVCAR-4 ovarian.
For assay [6], the system named is OVCAR-5 ovarian.
The subject of assay [7] is SK-MEL-5 melanoma.
Assay [8] concerns SR leukemia.
Assay [9] deals with UACC-257 melanoma.
Assay [10] has as its system CCRF-CEM leukemia.

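How tested: cells in 96-well plates exposed to compound for 48 hours at five concentrations. At the GI50, growth is halved. TGI: concentration producing complete growth inhibition.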

Take `CC(=O)OCC1OC(Nc2ccc3nc(C)n(-c4cccc(C)c4)c(=O)c3c2)C(OC(C)=O)C(OC(C)=O)C1OC(C)=O` (stereo unspecified): the TGI in assay [1], in assay [2], in [3], in [4], in assay [5] and in assay [6] was above 62.5 µM in each case. The TGI in assay [7], in assay [8] and in assay [9] was above 62.5 µM each time.
`O=C1/C(=C\c2ccc([N+](=O)[O-])cc2)Sc2scc(-c3ccc(O)c(O)c3)[n+]21`: the TGI in [10] was found to be 16.3 µM; in assay [2], 31.6 µM; in assay [3], 75.2 µM; in assay [4] it was 9.79 µM; in assay [5], 24.7 µM; in [6], 35.4 µM. In addition, the TGI in assay [7] worked out at 13.4 µM; in assay [8], 27.9 µM; in assay [9] it was 22.6 µM.
Turning to `CC(=O)O[C@H]1C(=O)[C@@]2(C)C([C@H](OC(=O)c3ccccc3)[C@]3(O)C[C@H](OC(=O)[C@H](O)[C@H](NC(=O)c4ccccc4)c4ccc(Cl)cc4)C(C)=C1C3(C)C)C1(OC(C)=O)CO[C@@H]1C[C@@H]2O` (stereo partly specified), the GI50 is 0.2 µM in assay [1] and 0.204 µM in [2]. Moreover, the TGI stood at 30.4 µM in [1]; 12.9 µM in assay [10]; 40.6 µM in assay [2]; 0.0124 µM in assay [4]; 22.1 µM in [5]; 0.0407 µM in assay [6]. Further, the TGI in [7] is 1.76 µM.
As for `CCOC(=O)N1CCN(Cc2cc(=O)n3cc(C)ccc3n2)CC1`, the TGI in assay [10], in assay [2], in [3], in assay [4], in assay [5] and in assay [6] was above 100 µM each time. For the same compound, the TGI in [8] and in assay [9] was above 100 µM throughout.
As to `Cc1cc2nc(N3C(=O)/C(=C/c4cccc([N+](=O)[O-])c4)N=C3c3ccccc3)sc2cc1C`, the TGI is 23.4 µM in assay [10]; 94.3 µM in assay [2]; above 100 µM in assay [3]; above 100 µM in assay [4]; 96.2 µM in [5]; above 100 µM in assay [6]. In addition, the TGI in [7] was above 100 µM; in assay [8] it was 35.1 µM; in assay [9] it was above 100 µM.
Regarding `O=C1C=C(N2CCCC2)C=C(N2CCCC2)C1`, the TGI in [10], in assay [2], in assay [3], in assay [4], in assay [6] and in assay [7] was above 100 µM in each case. Besides, the TGI in assay [8] and in assay [9] was above 100 µM throughout.
As to `Cc1c2c(c(C)n1-c1ccccc1)C(=O)N(CCSC(=N)N)C2=O`, the TGI in assay [1], in [10], in [2], in assay [3], in assay [4] and in assay [5] was above 100 µM each time. Moreover, the TGI in assay [6], in assay [7] and in [9] was above 100 µM each time.
Consider `O=C(Cc1ccccc1)NN1C(=O)C(Cl)C1c1cccc(O)c1` (stereo unspecified), for which the TGI was found to be 8.44 µM in [10]; 45.7 µM in assay [2]; 28.9 µM in assay [3]; 28.1 µM in assay [4]; 40 µM in assay [5]; 27.5 µM in assay [6]. In addition, the values for the TGI in [8] and in assay [9] were 15.4 µM and 35 µM, respectively.
As to `Cc1ccc(S(=O)(=O)N2CCCSCCSCCCSCC2)cc1`, the TGI in assay [10], in [2], in [3], in assay [4], in assay [5] and in [6] was above 100 µM each time. Also, the TGI in [7], in assay [8] and in [9] was above 100 µM each time.
For `N=C(/C=C/c1ccc(-c2cn3cc(/C=C/C(=N)N4CCCC4)ccc3n2)cc1)N1CCCC1`, the TGI in assay [1], in assay [2], in assay [3], in [4], in assay [5] and in assay [6] was above 100 µM throughout. The TGI in [7], in assay [8] and in assay [9] was above 100 µM in each case.
As to `CSC(SC)=C1C(=O)NN=C1C`, the TGI in assay [10], in assay [2], in assay [3], in [4], in assay [5] and in assay [6] was above 100 µM in each case. Further, the TGI in assay [7], in assay [8] and in assay [9] was above 100 µM in each case.
For the compound `FC(F)(F)P1C2C=CC(CC2)C1(F)F` (stereo unspecified), the TGI in assay [1], in [10], in assay [2], in [3], in assay [5] and in assay [6] was above 100 µM in each case. The TGI in [7] and in assay [9] was above 100 µM each time.
For `COc1cc(N(CCC#N)CCC#N)ccc1/C(N=Nc1ccc(C)cc1)=N/NC(=O)c1cc(Br)ccc1O`, the TGI was 25.2 µM in [10]; 66.7 µM in assay [2]; 41.2 µM in assay [3]; 67.3 µM in [4]; 63.1 µM in assay [5]; above 100 µM in assay [6]. For the same compound, the TGI was determined as 37 µM in [7], 76.3 µM in assay [8] and 83.8 µM in [9].
For the compound `N#C/C(=C1\N=C(c2ccccc2O)Oc2ccccc21)c1ccc([N+](=O)[O-])cc1`, the TGI in assay [1], in assay [10], in [2], in assay [3], in assay [4] and in assay [5] was above 100 µM in each case. In addition, the TGI in assay [6], in assay [7] and in [9] was above 100 µM in each case.
Consider `CCOC(=O)c1c(O)[nH]c(=O)c(CC)c1C`, for which the TGI in assay [1], in assay [10], in assay [2], in assay [3], in assay [4] and in [5] was above 100 µM in each case. The TGI in [6], in [7] and in assay [9] was above 100 µM in each case.
